In patent US20020151459A1, “Methods for identifying compounds useful for inhibiting farnesyl diphosphate synthase” (Merck & Co., Inc., priority 2000, published 2002):
“Also recorded” adds a separate entry of the source.

What was measured:
[1] = molecular target: T1, rat liver squalene synthase (Rattus norvegicus, UniProt Q02769); conditions: cited from earlier work
T1 construct: host or cells: rat liver
T1 sequence (Q02769 1-416): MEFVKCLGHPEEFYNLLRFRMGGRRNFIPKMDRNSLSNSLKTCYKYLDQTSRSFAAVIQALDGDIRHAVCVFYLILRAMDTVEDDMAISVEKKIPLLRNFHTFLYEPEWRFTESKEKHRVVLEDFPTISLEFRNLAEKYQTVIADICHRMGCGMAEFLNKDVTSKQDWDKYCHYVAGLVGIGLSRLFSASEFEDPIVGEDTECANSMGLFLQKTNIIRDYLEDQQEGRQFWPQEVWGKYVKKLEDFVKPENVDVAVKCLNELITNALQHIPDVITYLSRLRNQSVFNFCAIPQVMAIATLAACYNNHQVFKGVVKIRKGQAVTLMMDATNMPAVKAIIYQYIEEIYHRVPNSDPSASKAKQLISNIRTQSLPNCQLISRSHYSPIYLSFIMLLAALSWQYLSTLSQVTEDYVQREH

[2] = test system: protein prenylation in osteoclasts; conditions: at 60 μM
[3] = molecular target: Farnesyl protein transferase (FTase) (Homo sapiens, UniProt P49354+P49356)
[4] = molecular target: T2, human recombinant farnesyl diphosphate synthase (Homo sapiens, UniProt P14324)
T2 sequence (P14324 67-419 limits assumed): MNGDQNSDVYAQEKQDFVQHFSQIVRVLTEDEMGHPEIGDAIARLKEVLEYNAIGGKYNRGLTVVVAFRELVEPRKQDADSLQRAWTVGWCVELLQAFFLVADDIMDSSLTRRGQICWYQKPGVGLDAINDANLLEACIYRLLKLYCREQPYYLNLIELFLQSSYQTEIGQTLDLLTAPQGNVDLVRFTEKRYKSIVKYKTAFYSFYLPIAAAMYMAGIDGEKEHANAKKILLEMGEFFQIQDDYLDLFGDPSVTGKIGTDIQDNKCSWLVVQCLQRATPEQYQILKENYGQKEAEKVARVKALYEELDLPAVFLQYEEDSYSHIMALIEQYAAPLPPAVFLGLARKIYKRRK

[5] = test system: mevalonate-derived non-saponifiable lipids in osteoclasts; conditions: alendronate 0-60 μM
[6] = molecular target: geranylgeranyl protein transferase I (GGTase I) (Homo sapiens, UniProt P49354+P53609)
[7] = test system: sterol synthesis; conditions: read-out: IC50, block of sterol synthesis; incorporation of 14C-MVA into sterol, rat liver cell-free system; cited from earlier work
[8] = test system: mevalonate-derived non-saponifiable lipids in osteoclasts; test: cells; conditions: Mus musculus, Osteoclast, read-out: IC50, incorporation of label from MVL into non-saponifiable lipids, osteoclasts, 2 hours pretreatment, 3 hours of labeling
[9] = test system: osteoclasts in culture; conditions: cited from earlier work
[10] = test system: protein prenylation in osteoclasts; test: cells; conditions: Mus musculus, Osteoclast, read-out: IC50, labeling of prenylated proteins, osteoclasts, 15 μM lovastatin, 2 hours pretreatment, 3 hours of labeling
[11] = molecular target: geranylgeranyl protein transferase II (GGTase II) (Homo sapiens, UniProt P53611+Q92696)
[12] = molecular target: T2, human recombinant farnesyl diphosphate synthase; test: biochemical

geranylgeranyl protein transferase II (GGTase II), sequence (Q92696 whole entry): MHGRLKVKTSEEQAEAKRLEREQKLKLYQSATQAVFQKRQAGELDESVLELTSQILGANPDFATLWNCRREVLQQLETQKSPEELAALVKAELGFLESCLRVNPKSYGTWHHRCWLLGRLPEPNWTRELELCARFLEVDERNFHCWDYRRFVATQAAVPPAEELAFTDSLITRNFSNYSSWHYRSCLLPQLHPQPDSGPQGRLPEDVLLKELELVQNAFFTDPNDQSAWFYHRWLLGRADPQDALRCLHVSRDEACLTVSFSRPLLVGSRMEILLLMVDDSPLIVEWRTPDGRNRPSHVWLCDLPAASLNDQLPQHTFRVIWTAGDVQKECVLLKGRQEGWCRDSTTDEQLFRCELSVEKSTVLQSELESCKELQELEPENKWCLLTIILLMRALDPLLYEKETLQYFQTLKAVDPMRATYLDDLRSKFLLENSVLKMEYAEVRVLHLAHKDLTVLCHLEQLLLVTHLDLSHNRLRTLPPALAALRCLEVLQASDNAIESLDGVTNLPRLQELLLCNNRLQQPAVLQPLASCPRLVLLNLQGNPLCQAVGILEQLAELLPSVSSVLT
geranylgeranyl protein transferase II (GGTase II), sequence (P53611 whole entry): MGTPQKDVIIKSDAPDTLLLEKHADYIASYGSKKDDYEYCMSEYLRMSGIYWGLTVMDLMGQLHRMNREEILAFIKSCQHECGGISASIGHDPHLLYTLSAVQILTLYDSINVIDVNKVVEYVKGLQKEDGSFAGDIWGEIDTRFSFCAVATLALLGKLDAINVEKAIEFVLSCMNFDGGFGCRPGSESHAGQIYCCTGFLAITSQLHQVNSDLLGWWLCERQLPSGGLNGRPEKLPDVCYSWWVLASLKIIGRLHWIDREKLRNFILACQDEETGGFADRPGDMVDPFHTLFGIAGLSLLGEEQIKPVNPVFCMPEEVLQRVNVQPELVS

O=P(O)(O)C(O)(CCN1CCCC1)P(=O)(O)O [EB 1053, 1-hydroxy-3-(1-pyrrolidinyl)-propylidene-1,1-bisphosphonic acid]
inhibition of squalene synthase (in words) [1]: potent, nanomolar inhibitors

O=P(O)(O)C(NC1CCCCCC1)P(=O)(O)O [YM 175, Cycloheptylaminomethylene-1,1-bisphosphonic acid]
inhibition of squalene synthase (in words) [1]: potent, nanomolar inhibitors

NCCCC(O)(P(=O)(O)O)P(=O)(O)O [alendronate, 4-amino-1-hydroxybutylidene-1,1-bisphosphonic acid monosodium trihydrate]
labeling of prenylated proteins (in words) [2]: essentially disappears | inhibition of FTase (in words) [3]: not inhibited | inhibition of FPP synthase (in words) [4]: effectively inhibit | lowering of incorporation of label from MVL into non-saponifiable lipids [5]: up to 80% | inhibition of GGTase I (in words) [6]: not inhibited | IC50 [7]: 0.168 µM | IC50 [8]: ~15 µM | osteoclast formation and bone resorption (in words) [9]: inhibited | inhibition of squalene synthase (in words) [1]: comparatively little effect | IC50 [10]: ~15 µM | inhibition of GGTase II (in words) [11]: not inhibited

O=P(O)(O)C(Cl)(Cl)P(=O)(O)O [clodronate, 1,1-dichloromethylene-1,1-diphosphonic acid]
inhibition of FPP synthase (in words) [4]: no inhibition observed; also recorded: little or no effect

CC(O)(P(=O)(O)O)P(=O)(O)O [etidronate, 1-hydroxyethane-1,1-diphosphonic acid]
IC50 [12]: 80 µM | inhibition of FPP synthase (in words) [4]: little or no effect

CC[C@H](C)C(=O)O[C@H]1C[C@@H](C)C=C2C=C[C@H](C)[C@H](CC[C@@H]3C[C@@H](O)CC(=O)O3)[C@H]21 [lovastatin]
osteoclast formation and bone resorption (in words) [9]: inhibited

NCCC(O)(P(=O)(O)O)P(=O)(O)O [pamidronate, 3-amino-1-hydroxypropylidene-1,1-bisphosphonic acid]
inhibition of FPP synthase (in words) [4]: effectively inhibit | IC50 [7]: 0.42 µM | inhibition of squalene synthase (in words) [1]: comparatively little effect
